The first experiment concerns the target T1, TvaCA1 (Trichomonas vaginalis, UniProt A2ENQ8).
T1 construct: gene TVAG_005270; recombinant from E. coli BL21 Star (DE3), Ni2+-NTA purified; beta-CA homodimer with two active sites
T1 sequence (A2ENQ8 1-182): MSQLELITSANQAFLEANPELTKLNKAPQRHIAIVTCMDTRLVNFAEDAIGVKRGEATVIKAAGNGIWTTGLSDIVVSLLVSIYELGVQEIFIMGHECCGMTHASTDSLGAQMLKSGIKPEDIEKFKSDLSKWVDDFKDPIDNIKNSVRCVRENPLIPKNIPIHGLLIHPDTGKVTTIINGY
Put plainly: stopped-flow CO2 hydrase assay. The class given is biochemical. As to conditions: read-out: KI^a (nM) / TvaCA1^c.
Turning to `CCN[C@H]1CN(CCCOC)S(=O)(=O)c2sc(S(N)(=O)=O)cc21` [BRZ, brinzolamide], the Ki is above 50000 nM. On the same count and under the same terms, the same measure for `NS(=O)(=O)c1nnc(NS(=O)(=O)c2ccccc2)s1` [BZA, benzolamide]: above 50000 nM; for `NS(=O)(=O)c1cc(Cl)c(Cl)c(S(N)(=O)=O)c1` [DCP, dichlorophenamide]: above 50000 nM. On the same count and under the same terms, as for `CC(=O)N=c1sc(S(N)(=O)=O)nn1C` [MZA, methazolamide], the figure is 3830 nM. With `CC1(C)O[C@@H]2[C@@H](CO[C@@]3(COS(N)(=O)=O)OC(C)(C)O[C@@H]23)O1` [TPM, topiramate], the Ki is above 50000 nM. On to `NS(=O)(=O)Cc1noc2ccccc12` [ZNS, zonisamide], for which the Ki was above 50000 nM. Take `Nc1cccc(S(N)(=O)=O)c1` [compound 1, 1]: the Ki was 3250 nM.

On to `Nc1ccc(S(N)(=O)=O)cc1` [compound 2, 2], for which the Ki is 4740 nM. On the same count and under the same terms, the same measure for `NS(=O)(=O)c1cccc(S(N)(=O)=O)c1` [compound 3, 3]: 3560 nM; for `Cc1ccc(S(N)(=O)=O)cc1` [compound 4, 4]: 3600 nM. As for `Nc1ccc(S(N)(=O)=O)cc1F` [compound 7, 7], the Ki came out at 4280 nM. Same read-out and setting: the same measure for `NS(=O)(=O)c1cc(Cl)cc(Cl)c1O` [compound 10, 10]: 4540 nM; for `Nc1nnc(S(N)(=O)=O)s1` [compound 13, 13]: 1890 nM. The same measure, in the same setting: the same measure for `Cn1nc(S(N)(=O)=O)sc1=N` [compound 14, 14]: 3990 nM. The same measure, in the same setting: as for `NS(=O)(=O)c1ccc(O)cc1` [compound 15, 15], the figure is 2030 nM. For `Nc1nccc(Nc2ccc(S(N)(=O)=O)cc2)n1` [compound 19, 19], the Ki was determined as 4530 nM. As to `NS(=O)(=O)c1ccc(CCNS(=O)(=O)c2ccc([N+](=O)[O-])cc2CO)cc1` [compound 21, 21], the Ki came to 3450 nM.

A further experiment concerns the target T1, TvaCA1. Put plainly: biochemical. More on the design: stopped-flow CO2 hydration assay, phenol red at 557 nm, TRIS pH 8.3, 15 min preincubation, KI. As to conditions: inhibitor; read-out: KI^a (nM) / TvaCA1^c / β. On the procedure: An Applied Photophysics stopped-flow instrument was used for assaying the CA catalysed CO2 hydration activity. Phenol red (at a concentration of 0.2 mM) was used as an indicator, working at the absorbance maximum of 557 nm, with 10 − 20 mM HEPES (pH 7.5, for α-CAs) or TRIS (pH 8.3 for β-CAs) as buffers, and 20 mM NaClO4 (for maintaining constant the ionic strength), following the initial rates of the CA-catalysed CO2 hydration reaction for a period of 10–100 s. The CO2 concentrations ranged from 1.7 to 17 mM for the determination of the kinetic parameters and inhibition constants. For each inhibitor, at least six traces of the initial 5–10% of the reaction were used for determining the initial velocity. The uncatalyzed rates were determined in the same manner and subtracted from the total observed rates. Stock solutions of inhibitors (10 mM) and dilutions up to 0.01 nM were prepared in distilled-deionised water. Inhibitor and enzyme solutions of concentrations ranging between 5 and 12 nM were preincubated together for 15 min at room temperature prior to assay, in order to allow for the formation of the enzyme–inhibitor complex. The inhibition constants were obtained by non-linear least-squares methods using PRISM 3 as reported earlier, and represent the mean from at least three different determinations. TvaCA1 was a recombinant enzyme obtained in-house as described earlier. The enzyme was recombinantly produced in E. coli (OneShot® BL21 Star™ (DE3) Chemically Competent Cells, #C601003, Thermo Fisher Scientific, Finland). The enzyme was purified using Ni^2+-NTA agarose affinity chromatography resin (Macherey-Nagel GmbH Co., Germany). More detailed information concerning the recombinant protein production and its kinetic and structural characterisation can be found in our previous article. The presence of the correct protein in the isolated protein fraction was confirmed by tandem mass spectrometry (MS/MS).
In the case of `Nc1ccc(S(=O)(=O)NCc2ccc(S(N)(=O)=O)cc2)cc1` [compound 23], the Ki was above 50000 nM.

The same experiment, now with this note: read-out: KI^a (nM) / TvaCA1^c / β.
As to `Cc1ccc(-c2cc(C(F)(F)F)nn2-c2ccc(S(N)(=O)=O)cc2)cc1` [CLX], the Ki was above 50000 nM. On the same count and under the same terms, as for `NS(=O)(=O)c1cc2c(cc1Cl)NCNS2(=O)=O` [HCT], the figure is above 50000 nM; as for `NS(=O)(=O)c1ccc(S(=O)(=O)Nc2cccc3c(Cl)c[nH]c23)cc1` [IND], above 50000 nM.

Regarding `O=C1NS(=O)(=O)c2ccccc21` [SAC], the Ki was above 50000 nM. For the molecule `NS(=O)(=O)c1ccc(N2CCCCS2(=O)=O)cc1` [SLT], the Ki is above 50000 nM. For the molecule `Cc1onc(-c2ccccc2)c1-c1ccc(S(N)(=O)=O)cc1` [VLX], the Ki was above 50000 nM. Same read-out and setting: the same measure for `NCc1ccc(S(N)(=O)=O)cc1` [compound 5]: above 50000 nM; for `NCCc1ccc(S(N)(=O)=O)cc1` [compound 6]: above 50000 nM.

With `Nc1ccc(S(N)(=O)=O)cc1Cl` [compound 8], the Ki was above 50000 nM.

Turning to `Nc1ccc(S(N)(=O)=O)cc1Br` [compound 9], the Ki was above 50000 nM. In the case of `Nc1cc(C(F)(F)F)c(S(N)(=O)=O)cc1S(N)(=O)=O` [compound 11], the Ki was above 50000 nM. On the same count and under the same terms, the same measure for `Nc1cc(Cl)c(S(N)(=O)=O)cc1S(N)(=O)=O` [compound 12]: above 50000 nM; for `NS(=O)(=O)c1ccc(CO)cc1` [compound 16]: above 50000 nM. On the same count and under the same terms, the same measure for `NS(=O)(=O)c1ccc(CCO)cc1` [compound 17]: above 50000 nM; for `NS(=O)(=O)c1ccc(C(=O)O)cc1` [compound 18]: above 50000 nM.

As to `Nc1ccc(S(=O)(=O)Nc2nnc(S(N)(=O)=O)s2)cc1` [compound 20], the Ki was above 50000 nM.

`Nc1ccc(S(=O)(=O)Nc2ccc(S(N)(=O)=O)cc2)cc1` [compound 22]: the Ki was above 50000 nM.

The values are drawn from paper PMC7782162, “Inhibition of the β-carbonic anhydrase from the protozoan pathogen Trichomonas vaginalis with sulphonamides” (Journal of Enzyme Inhibition and Medicinal Chemistry, 2020).
